Source: publication PMC10305148, “In Vitro Characterization and Antiviral Susceptibility of Ophidian Serpentoviruses” (Microorganisms, 2023)
In brackets after ≈: the same amount, converted by molar mass. Read-outs that look alike come from different tables or passages of the source.

Columns and labels:
[1] = tested on: pathogenic herpesvirus isolated from tortoises; set-up: method as in PMID 9323927; settings: doses of 25 or 50 µg/mL, turtle heart cell cultures; cited from earlier work
[2] = tested on: AnPSV; test: CPE reduction assay in DPHt cells; format: cell-based, Antaresian python serpentovirus; settings: average ± SD; for EC50: read-out: EC50 (50% effective concentration, CPE reduction assay)
Text: (§1) Ribavirin was obtained from ICN Pharmaceuticals, Inc. (now Bausch Health, Laval, QC, Canada). Favipiravir was purchased from AdooQ Bioscience (Irvine, CA, USA). NITD-008 was supplied by BEI Resources (Manassas, VA, USA). Enviroximine was purchased from Cayman Chemical (Ann Arbor, MI, USA), and pirodavir was purchased from Med Chem Express (Monmouth Junction, NJ, USA). Infergen (Interferon-alfacon-1), a human consensus interferon, was provided by InterMune, Inc (Brisbane, CA, USA) as an aqueous solution. Solid compounds were dissolved in DMSO at a 20× concentration to yield a final DMSO concentration of <10%. Further dilutions were performed in culture media.
(§2) Diamond python heart cells (DPHt) were grown as described above. Cells were plated in 96-well microtiter plates and grown overnight prior to the addition of the virus and test compounds. A CPE assay was conducted to determine the activity of various antiviral against BPNV, GTSV, and AnPSN. Serial half-log dilutions of the test compounds were made and added to 5 wells of the 96-well plate. Culture media was added to two wells to determine the 50% cytotoxic concentration (CC50), and the virus was added to the other three wells to determine the 50% effective concentrations (EC50). Virus and cell controls were included with each plate. The selective index was determined by dividing the CC50 by the EC50/90 to determine the SI50/90. Two to three replicates of the assays were used to evaluate each compound.

[3] = tested on: BPNV; test: CPE reduction assay in DPHt cells; format: cell-based, Ball python nidovirus; settings: average ± SD; for EC50: Ball python nidovirus, read-out: EC50 (50% effective concentration, CPE reduction assay)
Text: as §1, §2

[4] = tested on: GTSV; test: CPE reduction assay in DPHt cells; format: cell-based, Green tree python serpentovirus; settings: average ± SD; for EC50: read-out: EC50 (50% effective concentration, CPE reduction assay)
Text: as §1, §2

[5] = tested on: AnPSV; test: Virus yield reduction (VYR) assay, supernatant titered on DPHt cells; format: cell-based, Antaresian python serpentovirus; settings: for EC90: read-out: EC90 (90% effective concentration, virus yield reduction assay)
[6] = tested on: BPNV; test: as above; format: cell-based, Ball python nidovirus; settings: for EC90: Ball python nidovirus, read-out: EC90 (90% effective concentration, virus yield reduction assay)
[7] = tested on: GTSV; test: as above; format: cell-based, Green tree python serpentovirus; settings: for EC90: read-out: EC90 (90% effective concentration, virus yield reduction assay)
[8] = tested on: Diamond python heart cells (DPHt); test: Cytotoxicity in uninfected wells of the CPE assay; format: cell-based, Diamond python (Morelia spilota spilota)
Procedure: as §2, with “compound. A confirmatory virus yield reduction (VYR) assay was conducted where supernatant from the CPE assay was collected and titered on DPHt cells to determine the 90% effective concentration (EC90), or the concentration of compound required to reduce the virus titer by one Log10.” for “compound.”

[9] = tested on: AnPNV, BPNV, and GTSV; test: CPE reduction assay, summary for all three serpentoviruses; format: cell-based, Ophidian serpentoviruses
Text: as §1
as §2, with “compound. A confirmatory virus yield reduction (VYR) assay was conducted where supernatant from the CPE assay was collected and titered on DPHt cells to determine the 90% effective concentration (EC90), or the concentration of compound required to reduce the virus titer by one Log10.” for “compound.”

[10] = set-up: method as in PMID 19918064; settings: rats; development ceased; cited from earlier work
[11] = set-up: method as in PMID 19918064; settings: dogs; development ceased; cited from earlier work
[12] = tested on: Dengue virus; set-up: method as in PMID 19918064; settings: animal models; cited from earlier work
[13] = Cytotoxicity in uninfected wells of the CPE assay; format: cell-based, Diamond python (Morelia spilota spilota); settings: Diamond python (Morelia spilota spilota), CC50 (50% cytotoxic concentration)
Procedure: as §2, with “compound. A confirmatory virus yield reduction (VYR) assay was conducted where supernatant from the CPE assay was collected and titered on DPHt cells to determine the 90% effective concentration (EC90), or the concentration of compound required to reduce the virus titer by one Log10.” for “compound.”

[14] = set-up: method as in PMID 17168855; settings: long-term treatment; cited from earlier work
[15] = Diamond python (Morelia spilota spilota)

Compound: Nc1nc(O)c2ncn(COC(CO)CO)c2n1 [ganciclovir]
- activity (in words) [1]: active

Compound: CC(C)S(=O)(=O)n1c(N)nc2ccc(/C(=N/O)c3ccccc3)cc21 [Enviroximine]
- EC50 (50% effective concentration, CPE reduction assay) [2]: >0.24 mg/L
- EC50 (50% effective concentration, CPE reduction assay) [3]: >0.38 mg/L
- EC50 (50% effective concentration, CPE reduction assay) [4]: >4.9 mg/L

Compound: C#C[C@@]1(O)[C@H](O)[C@@H](CO)O[C@H]1n1ccc2c(N)ncnc21 [NITD-008]
- EC50 (50% effective concentration, CPE reduction assay) [2]: 0.6 ± 0.3 mg/L (≈ 2.07 µM)
- EC50 (50% effective concentration, CPE reduction assay) [3]: 0.7 ± 0.4 mg/L (≈ 2.41 µM)
- EC50 (50% effective concentration, CPE reduction assay) [4]: 1.4 ± 0.8 mg/L (≈ 4.82 µM)
- EC90 (90% effective concentration, virus yield reduction assay) [5]: 0.76 mg/L (≈ 2.62 µM)
- EC90 (90% effective concentration, virus yield reduction assay) [6]: 1.5 mg/L (≈ 5.17 µM)
- EC90 (90% effective concentration, virus yield reduction assay) [7]: 4.8 mg/L (≈ 16.5 µM)
- CC50 (50% cytotoxic concentration) ([8]; DPHt cells, table line of AnPSV): 33 ± 9.0 mg/L (≈ 114 µM)
- CC50 (50% cytotoxic concentration) ([8]; DPHt cells, table line of BPNV): 37 ± 26 mg/L (≈ 127 µM)
- CC50 (50% cytotoxic concentration) ([8]; DPHt cells, table line of GTSV): 55 ± 42 mg/L (≈ 189 µM)
- antiviral activity (in words) [9]: potent antiviral activity
- toxicity (in words) [10]: toxicity was observed
- toxicity (in words) [11]: toxicity was observed
- efficacy (in words) [12]: showed promise

Compound: NC(=O)c1ncn([C@@H]2O[C@H](CO)[C@@H](O)[C@H]2O)n1 [Ribavirin]
- EC50 [2]: 2 ± 0.3 mg/L (≈ 8.19 µM)
- EC50 [3]: 0.9 ± 0.2 mg/L (≈ 3.69 µM)
- EC50 [4]: 7.9 ± 3 mg/L (≈ 32.3 µM)
- EC90 ([5]; AnPSV, concentration reducing virus titer by one Log10): 12 mg/L (≈ 49.1 µM)
- EC90 ([6]; BPNV, concentration reducing virus titer by one Log10): 1.6 mg/L (≈ 6.55 µM)
- EC90 ([7]; GTSV, concentration reducing virus titer by one Log10): 14 mg/L (≈ 57.3 µM)
- CC50 [13]: > 1000 mg/L
- CC50 (50% cytotoxic concentration) [8, 15]: >1000 mg/L
- antiviral activity (in words) [9]: potent antiviral activity
- adverse effect (in words) [14]: associated with anemia

Compound: CCC(CC)COC(=O)[C@H](C)N[P@](=O)(OC[C@H]1O[C@@](C#N)(c2ccc3c(N)ncnn23)[C@H](O)[C@@H]1O)Oc1ccccc1 [Remdesivir]
- EC50 [2]: < 0.022 mg/L
- EC50 [3]: < 0.022 mg/L
- EC50 [4]: < 0.022 mg/L
- EC90 [5]: < 0.001 mg/L
- EC90 [6]: < 0.001 mg/L
- EC90 [7]: < 0.001 mg/L
- CC50 [13]: 2.2 ± 1.6 mg/L (≈ 3.65 µM)
- CC50 (50% cytotoxic concentration) [8, 15]: 2.3 ± 1.8 mg/L (≈ 3.82 µM)
- antiviral activity (in words) [9]: potent antiviral activity

Compound: Nc1nc2c(ncn2COCCO)c(=O)[nH]1 [Acyclovir]
- activity (in words) [1]: active

Compound: Interferon-alfacon-1 [Infergen]
- EC50 (50% effective concentration, CPE reduction assay) [2]: >0.01 mg/L
- EC50 (50% effective concentration, CPE reduction assay) [3]: >0.01 mg/L
- EC50 (50% effective concentration, CPE reduction assay) [4]: >0.01 mg/L
- CC50 (50% cytotoxic concentration) [8]: 0.01 mg/L

Compound: NC(=O)c1nc(F)c[nH]c1=O [Favipiravir]
- EC50 [2]: > 320 mg/L
- EC50 [3]: > 320 mg/L
- EC50 [4]: > 320 mg/L
- CC50 [13]: > 320 mg/L
- CC50 (50% cytotoxic concentration) [8, 15]: >320 mg/L

Compound: CCOC(=O)c1ccc(OCCC2CCN(c3ccc(C)nn3)CC2)cc1 [Pirodavir, pirodavir]
- EC50 [2]: 1.1 mg/L (≈ 2.98 µM)
- EC50 [3]: 2.6 mg/L (≈ 7.04 µM)
- EC50 [4]: 0.86 mg/L (≈ 2.33 µM)
- CC50 [13]: 7.3 mg/L (≈ 19.8 µM)
- CC50 (50% cytotoxic concentration) [8, 15]: >10 mg/L
